Test results from patent publication US20080125400A1, “USE OF PHOSPHOENOLPYRUVATE DERIVATIVES” (priority 2006, published 2008).

Tested on: troponin I
Experiment: Randomized double-blind trial of PEPA in blood-based STH cardioplegia; blood troponin I by immunoassay (ADVIA Centaur)
Assay type: in vivo, human
Details: patients undergoing coronary artery bypass surgery; versus STH without PEPA
Method: A study was carried out to determine the effect of PEPA on heart tissue in patients with ischemic heart disease undergoing coronary artery bypass surgery. The study was a randomized, double-blind, parallel group, comparative trial that compared the effect during surgery (and shortly thereafter) of the presence or absence of a single dose of PEPA in blood-based STH.
The patients were assigned randomly to one of two groups. For the first group, PEPA was made up in a concentration of 495 μM/L as a single dose added to blood-based STH (“PEPA+STH”). Normal blood-based STH (without PEPA) was administered to the second group. There were 37 patients in each group.
PEPA was made up under sterile conditions in 40 ml of Ringer's solution and then filtered using a sterile 0.22 μm filter to sterilize the solution. Ten mL aliquots of the sterile PEPA solution were measured and added to each of three 1 L bags of Ringer's solution under sterile conditions providing a Ringer's solution containing 990 μM/L PEPA. […]
A sample of blood was collected from each patient at regular intervals during surgery (at the time of anaesthesia and at 6 and 12 hours after the start of surgery) and after surgery (at 24, 48 and 72 hours after the start of surgery). Each sample was analyzed by an immunoassay method using an ADVIA Centaur® system to determine the level of troponin I. […]

Structure (SMILES): C=C(OP(=O)(O)O)C(N)=O [PEPA, 2-(dihydroxyphosphoryloxy)prop-2-enoic amide]
- overall concentration of troponin I in the blood over the period studied: markedly reduces
